Source: publication PMC11200585, “Prospects for Prostate Cancer Chemotherapy: Cytotoxic Evaluation and Mechanistic Insights of Quinolinequinones with ADME/PK Profile” (Biomedicines, 2024)

How the values were obtained:
Format in all cases: cell-based, human
COLO 205 = assay: NCI-60 one-dose screen (colon cancer); settings: 10 µM single dose, 48 h
Experimental: (§1) The obtained quinolinequinones were submitted to NCI, Bethesda, USA, and, as per standard protocol of NCI, all compounds were evaluated for their antiproliferative activity at single-dose assay (10 µM concentration in DMSO) on a panel of 60 cancer cell lines derived from leukemia, non-small-cell lung, colon, CNS, melanoma, ovarian, renal, prostate, and breast, as per protocol. Tested compounds were added to the microtiter culture plates followed by incubation for 48 h at 37 °C. Sulforhodamine B (SRB), a protein-binding dye, is used for endpoint determination. The percent of the growth of the treated cells was determined in comparison to the untreated control cells and the results of each tested compound were reported. Data from one-dose experiments pertain to the percentage growth at 10 μM [16, 17, 18].

HCC-2998 [1] = assay: NCI-60 one-dose screen (colon cancer); settings: 10 µM single dose
Experimental: as §1

HCT-15 = assay: NCI-60 one-dose screen (colon cancer); settings: 10 µM single dose, 48 h
Experimental: as §1

HT29 = assay: NCI-60 one-dose screen (colon cancer)
Experimental: as §1

KM12 = assay: NCI-60 one-dose screen (colon cancer); settings: 10 µM single dose, 48 h
Experimental: as §1

SW-620 [2] = assay: NCI-60 one-dose screen (colon cancer); settings: 10 µM single dose, 48 h
Experimental: as §1

786-0 [3] = assay: NCI-60 one-dose screen (renal cancer); settings: 10 µM single dose, 48 h
Experimental: as §1

A498 [4] = assay: NCI-60 one-dose screen (renal cancer); settings: 10 µM single dose, 48 h
Experimental: as §1

ACHN [5] = assay: NCI-60 one-dose screen (renal cancer); settings: 10 µM single dose, 48 h
Experimental: as §1

SN12C = assay: NCI-60 one-dose screen (renal cancer); settings: 10 µM single dose, 48 h
Experimental: as §1

TK-10 = assay: NCI-60 one-dose screen (renal cancer); settings: 10 µM single dose, 48 h
Experimental: as §1

UO-31 = assay: NCI-60 one-dose screen (renal cancer); settings: 10 µM single dose, 48 h
Experimental: as §1

DU-145 = assay: NCI-60 one-dose screen (prostate cancer); settings: 10 µM single dose, 48 h
Experimental: as §1

PC-3 = assay: NCI-60 one-dose screen (prostate cancer); settings: 10 µM single dose
Experimental: as §1

BT-549 = assay: NCI-60 one-dose screen (breast cancer); settings: 10 µM single dose, 48 h
Experimental: as §1

HS 578T = assay: NCI-60 one-dose screen (breast cancer); settings: 10 µM single dose
Experimental: as §1

MCF7 = assay: NCI-60 one-dose screen (breast cancer); settings: 10 µM single dose, 48 h
Experimental: as §1

MDA-MB-231/ATCC [6] = assay: NCI-60 one-dose screen (breast cancer); settings: 10 µM single dose, 48 h
Experimental: as §1

MDA-MB-468 = assay: NCI-60 one-dose screen (breast cancer); settings: 10 µM single dose, 48 h
Experimental: as §1

T-47D = assay: NCI-60 one-dose screen (breast cancer); settings: 10 µM single dose, 48 h
Experimental: as §1

MOLT-4 = assay: NCI-60 five-dose assay (leukemia); settings: 48 h, SRB
SR = assay: NCI-60 five-dose assay (leukemia); settings: 48 h, SRB
HOP-62 = assay: NCI-60 five-dose assay (non-small cell lung cancer); settings: 48 h, SRB
HCC-2998 [7] = assay: NCI-60 five-dose assay (colon cancer); settings: 48 h, SRB
HCT-116 = assay: NCI-60 five-dose assay (colon cancer); settings: 48 h, SRB
SW-620 [8] = assay: NCI-60 five-dose assay (colon cancer); settings: 48 h, SRB
SF-539 = assay: NCI-60 five-dose assay (CNS cancer); settings: 48 h, SRB
LOX IMVI = assay: NCI-60 five-dose assay (melanoma); settings: 48 h, SRB
MALME-3M = assay: NCI-60 five-dose assay (melanoma); settings: 48 h, SRB
SK-MEL-2 = assay: NCI-60 five-dose assay (melanoma); settings: 48 h, SRB
OVCAR-3 = assay: NCI-60 five-dose assay (ovarian cancer); settings: 48 h, SRB
OVCAR-4 = assay: NCI-60 five-dose assay (ovarian cancer); settings: 48 h, SRB
OVCAR-5 = assay: NCI-60 five-dose assay (ovarian cancer); settings: 48 h, SRB
SK-OV-3 = assay: NCI-60 five-dose assay (ovarian cancer); settings: 48 h, SRB
786-0 [9] = assay: NCI-60 five-dose assay (renal cancer); settings: 48 h, SRB
A498 [10] = assay: NCI-60 five-dose assay (renal cancer); settings: 48 h, SRB
ACHN [11] = assay: NCI-60 five-dose assay (renal cancer); settings: 48 h, SRB
MDA-MB-231/ATCC [12] = assay: NCI-60 five-dose assay (breast cancer); settings: 48 h, SRB
[13] = Homo sapiens, read-out: LC50 (the source's name)

In the case of `CCOc1ccccc1NC1=C(Cl)C(=O)c2nc(C)ccc2C1=O` [AQQ2], the “GP (growth percentage)” value (COLO 205) is reported as 99.24%, the “GP (growth percentage)” value (HCC-2998 [1]; 48 h) is reported as 20.35% and the inhibition at 10 µM (HCC-2998 [1]; Homo sapiens) is reported as 79.7%. The “GP (growth percentage)” value (HCT-15) was −76.56%, the “GP (growth percentage)” value (HT29; 10 µM single dose, 48 h) was 19.96% and the inhibition at 10 µM (HT29; Homo sapiens, HT-29, 10 µM single dose) was 80%. For the same molecule, the “GP (growth percentage)” value (KM12) was 60.77%, the “GP (growth percentage)” value (SW-620 [2]) was −66.65% and the “GP (growth percentage)” value (786-0 [3]) was −88.18%. For the same molecule, the “GP (growth percentage)” value (A498 [4]) was 78.84%, the “GP (growth percentage)” value (ACHN [5]) was −99.15% and the “GP (growth percentage)” value (SN12C) was −50.97%. For the same molecule, the “GP (growth percentage)” value (TK-10) was 124.08%, the “GP (growth percentage)” value (UO-31) was −92.96% and the “GP (growth percentage)” value (DU-145) was −85.02%. For the same molecule, the “GP (growth percentage)” value (PC-3; 48 h) was 4.34%, the inhibition at 10 µM (PC-3; Homo sapiens) was 95.7% and the “GP (growth percentage)” value (BT-549) was 44.40%. For the same molecule, the “GP (growth percentage)” value (HS 578T; 48 h) was 1.05%, the inhibition at 10 µM (HS 578T; Homo sapiens) was 99% and the “GP (growth percentage)” value (MCF7) was −59.68%. The “GP (growth percentage)” value (MDA-MB-231/ATCC [6]) was −63.63%, the “GP (growth percentage)” value (MDA-MB-468) was −90.72% and the “GP (growth percentage)” value (T-47D) was −40.00%. It also gave a TGI (MOLT-4) of 8.09 µM, a GI50 (MOLT-4; Homo sapiens) of 2.03 µM and an LC50 (MOLT-4; Homo sapiens) of over 100 µM. The TGI (SR) was 4.14 µM, the GI50 (SR; Homo sapiens) was 0.543 µM and the CC50 (SR; [13]) was over 100 µM. The TGI (HOP-62) was 6.74 µM, the GI50 (HOP-62; Homo sapiens) was 2.27 µM and the LC50 (concentration killing 50% of cells) (HOP-62; Homo sapiens) was 28.8 µM. It also gave a TGI (HCC-2998 [7]) of 3.52 µM, a GI50 (HCC-2998 [7]; Homo sapiens) of 1.94 µM and an LC50 (concentration killing 50% of cells) (HCC-2998 [7]; Homo sapiens) of 6.39 µM. For the same molecule, the TGI (HCT-116) was 2.31 µM, the GI50 (HCT-116; Homo sapiens) was 1.05 µM and the LC50 (HCT-116; Homo sapiens) was 5.05 µM. It also gave a TGI (SW-620 [8]) of 3.21 µM, a GI50 (SW-620 [8]; Homo sapiens) of 1.6 µM and an LC50 (SW-620 [8]; Homo sapiens) of 6.41 µM. It also gave a TGI (SF-539) of 3.09 µM, a GI50 (SF-539; Homo sapiens) of 1.67 µM and an LC50 (SF-539; Homo sapiens) of 5.71 µM. It also gave a TGI (LOX IMVI) of 2.22 µM, a GI50 (LOX IMVI; Homo sapiens) of 0.839 µM and an LC50 (concentration killing 50% of cells) (LOX IMVI; Homo sapiens) of 5.33 µM. For the same molecule, the TGI (MALME-3M) was 2.77 µM, the GI50 (MALME-3M; Homo sapiens) was 1.36 µM and the LC50 (MALME-3M; Homo sapiens) was 5.64 µM. The TGI (SK-MEL-2) was 2.86 µM, the GI50 (SK-MEL-2; Homo sapiens) was 1.44 µM and the CC50 (SK-MEL-2; [13]) was 5.69 µM. For the same molecule, the TGI (OVCAR-3) was 2.03 µM, the GI50 (OVCAR-3; Homo sapiens) was 0.759 µM and the CC50 (OVCAR-3; [13]) was 4.54 µM. The TGI (OVCAR-4) was 2.22 µM, the GI50 (OVCAR-4; Homo sapiens) was 1 µM and the LC50 (concentration killing 50% of cells) (OVCAR-4; Homo sapiens) was 4.91 µM. It also gave a TGI (OVCAR-5) of 3.33 µM, a GI50 (OVCAR-5; Homo sapiens) of 1.84 µM and an LC50 (lethal concentration 50%) (OVCAR-5; Homo sapiens) of 6.03 µM. It also gave a TGI (SK-OV-3) of 27.1 µM, a GI50 (SK-OV-3; Homo sapiens) of 13.5 µM and an LC50 (50% net cell kill) (SK-OV-3; Homo sapiens) of 54.2 µM. It also gave a TGI (786-0 [9]) of 3.25 µM, a GI50 (786-0 [9]; Homo sapiens) of 1.8 µM and an LC50 (786-0 [9]; Homo sapiens) of 5.86 µM. For the same molecule, the TGI (A498 [10]) was 10.8 µM, the GI50 (A498 [10]; Homo sapiens) was 2.65 µM and the LC50 (A498 [10]; Homo sapiens) was 34.8 µM. The TGI (ACHN [11]) was 2.69 µM, the GI50 (ACHN [11]; Homo sapiens) was 1.35 µM and the LC50 (ACHN [11]; Homo sapiens) was 5.35 µM. It also gave a TGI (MDA-MB-231/ATCC [12]) of 2.38 µM, a GI50 (MDA-MB-231/ATCC [12]; Homo sapiens) of 1.07 µM and an LC50 (concentration killing 50% of cells) (MDA-MB-231/ATCC [12]; Homo sapiens) of 5.31 µM.
